Values quoted from earlier work in patent publication US20120322868A1, “FOOD PRODUCTS, PREPARATION, AND THERAPEUTIC METHODS” (priority 2010, published 2012).

Key:
[1] = test system: insulin levels and insulin sensitivity; details: hyperinsulinemic patients with polycystic ovary syndrome
[2] = test system: atherosclerosis; details: apolipoprotein E-deficient mice
[3] = test system: immunological functions and plasma albumin; details: HIV+ patients
[4] = test system: cancer; details: dietary protein, laboratory animals (Campbell)

Row | Molecule | insulin levels and insulin sensitivity [1] | atherosclerosis [2] | immunological functions and plasma albumin concentrations [3] | promotion of cancer [4]
1 | CC(=O)N[C@@H](CS)C(=O)O [NAC, N-acetyl-L-cysteine] | improves insulin levels and insulin sensitivity | reduce atherosclerosis | marked increase | 
2 | casein |  |  |  | promotes cancer
